Assay results reported in PMC11012124, “Synthesis of Novel Triazine-Based Chalcones and 8,9-dihydro-7H-pyrimido[4,5-b][1,4]diazepines as Potential Leads in the Search of Anticancer, Antibacterial and Antifungal Agents” (International Journal of Molecular Sciences, 2024).
Converted amounts (≈) assume the structure as drawn.

How the values were obtained:
[1] = test system: M. tuberculosis ATCC 27294; assay: Antitubercular broth microdilution MIC; type: cell-based; details: Mycobacterium tuberculosis; M. tuberculosis ATCC 27294 (H37Rv); read-out: Minimum inhibitory concentration (MIC)
KM12 = assay: cells; details: Homo sapiens, KM12, 48 h; for CC50: read-out: LC50
NCI/ADR-RES = assay: cells; details: Homo sapiens, 48 h; for CC50: read-out: LC50
[2] = test system: Trichophyton mentagrophytes (CCC 202-2000); assay: Antifungal broth microdilution (CLSI); type: cell-based; details: Tm: Trichophyton mentagrophytes
Outline: (§1)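 Broth microdilution followed CLSI M27-A3 for yeasts and the filamentous-fungi reference method, in 200 μL final volume with DMSO-matched growth controls. Plates were incubated in the dark and humid at 30 °C for a time suited to each fungus; testing was done in triplicate.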

[3] = test system: Cryptococcus neoformans (ATCC 32264); assay: Antifungal broth microdilution (CLSI); type: cell-based; details: ATCC32264; Cn: Cryptococcus neoformans
Outline: as §1

[4] = test system: Microsporum gypseum (CCC 115); assay: Antifungal broth microdilution (CLSI); type: cell-based; details: Nannizzia gypsea; Mg: Microsporum gypseum
Outline: as §1

A. flavus (ATCC 9170) = assay: Antifungal broth microdilution (CLSI); type: cell-based; details: ATCC9170; Afl: Aspergillus flavus
Outline: as §1

[5] = test system: Trichophyton rubrum (CCC 134-2000); assay: Antifungal broth microdilution (CLSI); type: cell-based; details: Tr: Trichophyton rubrum
Outline: as §1

[6] = test system: A. fumigatus (ATCC 26934); assay: Antifungal broth microdilution (CLSI); type: cell-based; details: ATCC26934; Afu: Aspergillus fumigatus
Outline: as §1

CAKI-1 = assay: cells; details: Homo sapiens, CAKI-1, 48 h; for CC50: read-out: LC50
HOP-92 = assay: cells; details: Homo sapiens, HOP-92, 48 h; for CC50: read-out: LC50
NCI-H460 = assay: cells; details: Homo sapiens, NCI-H460, 48 h; for CC50: read-out: LC50
SK-MEL-2 = assay: cells; details: Homo sapiens, SK-MEL-2, 48 h; for CC50: read-out: LC50
786-0 = assay: cells; details: Homo sapiens, 786-0, 48 h; for CC50: read-out: LC50
SK-OV-3 = assay: cells; details: Homo sapiens, SK-OV-3, 48 h; for CC50: read-out: LC50
NCI-H23 = assay: cells; details: Homo sapiens, NCI-H23, 48 h; for CC50: read-out: LC50
SNB-75 = assay: cells; details: Homo sapiens, SNB-75, 48 h; for CC50: read-out: LC50
K-562 = assay: cells; details: Homo sapiens, K562, 48 h; for GI50: K-562, 48 h; for CC50: read-out: LC50
RXF 393 = assay: cells; details: Homo sapiens, RXF 393, 48 h; for CC50: read-out: LC50
MDA-MB-468 = assay: cells; details: Homo sapiens, MDA-MB-468, 48 h; for CC50: read-out: LC50
IGROV1 = assay: cells; details: Homo sapiens, IGROV-1, 48 h; for CC50: read-out: LC50
A549/ATCC = assay: cells; details: Homo sapiens, A549, 48 h; for CC50: read-out: LC50
SW-620 = assay: cells; details: Homo sapiens, SW-620, 48 h; for CC50: read-out: LC50
HCT-15 = assay: cells; details: Homo sapiens, HCT-15, 48 h; for CC50: read-out: LC50
SK-MEL-28 = assay: cells; details: Homo sapiens, SK-MEL-28, 48 h; for CC50: read-out: LC50
SK-MEL-5 = assay: cells; details: Homo sapiens, SK-MEL-5, 48 h; for CC50: read-out: LC50
HCC-2998 = assay: cells; details: Homo sapiens, HCC 2998, 48 h; for CC50: read-out: LC50
NCI-H522 = assay: cells; details: Homo sapiens, NCI-H522, 48 h; for CC50: read-out: LC50
TK-10 = assay: cells; details: Homo sapiens, TK-10, 48 h; for CC50: read-out: LC50
SNB-19 = assay: cells; details: Homo sapiens, SNB-19, 48 h

`CN(C)c1nc(NCCNS(=O)(=O)c2ccc(C3=Nc4c(N)nc(N)nc4NC(c4ccc(C(F)(F)F)cc4)C3)cc2)nc(Nc2ccc(F)cc2)n1` (centres unmarked) [31g] gave an MIC [1] of 5 µg/mL (≈ 6.65 µM), a GI50 (KM12) of 6.14 µM and a CC50 (KM12) of 86 µM. It also gave a GI50 (NCI/ADR-RES) of over 86 µM, a CC50 (NCI/ADR-RES) of over 86 µM and an MIC [2] of 62.5 µg/mL (≈ 83.1 µM). It also gave an MIC [3] of over 250 µg/mL, an MIC [4] of over 250 µg/mL and an MIC (A. flavus (ATCC 9170)) of over 250 µg/mL. For the same compound, the MIC [5] was 250 µg/mL (≈ 333 µM), the MIC [6] was 62.5 µg/mL (≈ 83.1 µM) and the GI50 (CAKI-1) was 36.8 µM. For the same compound, the CC50 (CAKI-1) was 86 µM, the GI50 (HOP-92) was 2.99 µM and the CC50 (HOP-92) was 16.9 µM. For the same compound, the GI50 (NCI-H460) was 5.49 µM, the CC50 (NCI-H460) was 86 µM and the GI50 (SK-MEL-2) was 10.8 µM. The CC50 (SK-MEL-2) was 24.7 µM, the GI50 (786-0) was 10.1 µM and the CC50 (786-0) was 39.8 µM. For the same compound, the GI50 (SK-OV-3) was over 86 µM, the CC50 (SK-OV-3) was over 86 µM and the GI50 (NCI-H23) was 27.7 µM. The CC50 (NCI-H23) was 86 µM, the GI50 (SNB-75) was 2.13 µM and the CC50 (SNB-75) was 86 µM. The GI50 (K-562) was 3.51 µM, the CC50 (K-562) was 86 µM and the GI50 (RXF 393) was 2570 nM. For the same compound, the CC50 (RXF 393) was 18.8 µM, the GI50 (MDA-MB-468) was 2.67 µM and the CC50 (MDA-MB-468) was 11.7 µM. The GI50 (IGROV1) was 11.2 µM, the CC50 (IGROV1) was 86 µM and the GI50 (A549/ATCC) was 55 µM. For the same compound, the CC50 (A549/ATCC) was 86 µM, the GI50 (SW-620) was 14.3 µM and the CC50 (SW-620) was 86 µM. It also gave a GI50 (HCT-15) of 55.1 µM, a CC50 (HCT-15) of 86 µM and a GI50 (SK-MEL-28) of 15 µM. The CC50 (SK-MEL-28) was 86 µM, the GI50 (SK-MEL-5) was 10.4 µM and the CC50 (SK-MEL-5) was 21.3 µM. For the same compound, the GI50 (HCC-2998) was 4.73 µM, the CC50 (HCC-2998) was 25.9 µM and the GI50 (NCI-H522) was 17.8 µM. The CC50 (NCI-H522) was 44.8 µM, the GI50 (TK-10) was over 86 µM and the CC50 (TK-10) was over 86 µM.
`CN(C)c1nc(NCCNS(=O)(=O)c2ccc(C(=O)/C=C/c3ccc(Cl)cc3)cc2)nc(Nc2ccc(F)cc2)n1` [24e] showed an MIC [1] of 25 µg/mL (≈ 41.9 µM), a GI50 (KM12) of 2.97 µM and a CC50 (KM12) of 9.1 µM. The GI50 (NCI/ADR-RES) was 5.49 µM, the CC50 (NCI/ADR-RES) was 18.4 µM and the MIC [2] was 125 µg/mL (≈ 210 µM). It also gave an MIC [3] of over 250 µg/mL, an MIC [4] of over 250 µg/mL and an MIC (A. flavus (ATCC 9170)) of over 250 µg/mL. It also gave an MIC [5] of over 250 µg/mL, an MIC [6] of over 250 µg/mL and a GI50 (CAKI-1) of 4.93 µM. The CC50 (CAKI-1) was 19.5 µM, the GI50 (HOP-92) was 3.83 µM and the CC50 (HOP-92) was 14.7 µM. It also gave a GI50 (NCI-H460) of 3.38 µM, a CC50 (NCI-H460) of 13.8 µM and a GI50 (SK-MEL-2) of 5.47 µM. The CC50 (SK-MEL-2) was 19.5 µM, the GI50 (786-0) was 7.28 µM and the CC50 (786-0) was 20.2 µM. It also gave a GI50 (SK-OV-3) of 11.5 µM, a CC50 (SK-OV-3) of 27.7 µM and a GI50 (NCI-H23) of 10.7 µM. For the same compound, the CC50 (NCI-H23) was 23.4 µM, the GI50 (SNB-75) was 5.6 µM and the CC50 (SNB-75) was 25.7 µM. For the same compound, the GI50 (K-562) was 3.29 µM, the CC50 (K-562) was over 100 µM and the GI50 (SNB-19) was 9.18 µM. The CC50 (SNB-19; read-out: LC50) was 21.3 µM, the GI50 (RXF 393) was 3090 nM and the CC50 (RXF 393) was 15.1 µM. It also gave a GI50 (MDA-MB-468) of 3.71 µM, a CC50 (MDA-MB-468) of 14.8 µM and a GI50 (IGROV1) of 8.58 µM. The CC50 (IGROV1) was 21.4 µM, the GI50 (A549/ATCC) was 4.52 µM and the CC50 (A549/ATCC) was 17.4 µM. For the same compound, the GI50 (SW-620) was 2.78 µM, the CC50 (SW-620) was 11 µM and the GI50 (HCT-15) was 4.62 µM. It also gave a CC50 (HCT-15) of 16.9 µM, a GI50 (SK-MEL-28) of 6.77 µM and a CC50 (SK-MEL-28) of 20.1 µM. It also gave a GI50 (SK-MEL-5) of 5.89 µM, a CC50 (SK-MEL-5) of 18.8 µM and a GI50 (HCC-2998) of 2.48 µM. For the same compound, the CC50 (HCC-2998) was 6.9 µM, the GI50 (NCI-H522) was 7.1 µM and the CC50 (NCI-H522) was 22 µM. For the same compound, the GI50 (TK-10) was 11.7 µM and the CC50 (TK-10) was 30.3 µM.
